In patent US12522583B2, “Benzimidazole derivatives and aza-benzimidazole derivatives as Janus kinase 2 inhibitors and uses thereof” (Dana-Farber Cancer Institute, Inc., priority 2018, dated 2026):

Molecular target: JAK2 (Homo sapiens (Human), UniProt O60674)
Assay: JAK2 Z-Lyte biochemical assay
Conditions: not given
Experimental: Example 3. JAK2 Z-Lyte Biochemical Assay of the Compounds of the Present Disclosure
The JAK2 Z-Lyte biochemical assay was performed according to manufacturer's instructions (Life Technologies).

Sequence of JAK2 (O60674 whole entry): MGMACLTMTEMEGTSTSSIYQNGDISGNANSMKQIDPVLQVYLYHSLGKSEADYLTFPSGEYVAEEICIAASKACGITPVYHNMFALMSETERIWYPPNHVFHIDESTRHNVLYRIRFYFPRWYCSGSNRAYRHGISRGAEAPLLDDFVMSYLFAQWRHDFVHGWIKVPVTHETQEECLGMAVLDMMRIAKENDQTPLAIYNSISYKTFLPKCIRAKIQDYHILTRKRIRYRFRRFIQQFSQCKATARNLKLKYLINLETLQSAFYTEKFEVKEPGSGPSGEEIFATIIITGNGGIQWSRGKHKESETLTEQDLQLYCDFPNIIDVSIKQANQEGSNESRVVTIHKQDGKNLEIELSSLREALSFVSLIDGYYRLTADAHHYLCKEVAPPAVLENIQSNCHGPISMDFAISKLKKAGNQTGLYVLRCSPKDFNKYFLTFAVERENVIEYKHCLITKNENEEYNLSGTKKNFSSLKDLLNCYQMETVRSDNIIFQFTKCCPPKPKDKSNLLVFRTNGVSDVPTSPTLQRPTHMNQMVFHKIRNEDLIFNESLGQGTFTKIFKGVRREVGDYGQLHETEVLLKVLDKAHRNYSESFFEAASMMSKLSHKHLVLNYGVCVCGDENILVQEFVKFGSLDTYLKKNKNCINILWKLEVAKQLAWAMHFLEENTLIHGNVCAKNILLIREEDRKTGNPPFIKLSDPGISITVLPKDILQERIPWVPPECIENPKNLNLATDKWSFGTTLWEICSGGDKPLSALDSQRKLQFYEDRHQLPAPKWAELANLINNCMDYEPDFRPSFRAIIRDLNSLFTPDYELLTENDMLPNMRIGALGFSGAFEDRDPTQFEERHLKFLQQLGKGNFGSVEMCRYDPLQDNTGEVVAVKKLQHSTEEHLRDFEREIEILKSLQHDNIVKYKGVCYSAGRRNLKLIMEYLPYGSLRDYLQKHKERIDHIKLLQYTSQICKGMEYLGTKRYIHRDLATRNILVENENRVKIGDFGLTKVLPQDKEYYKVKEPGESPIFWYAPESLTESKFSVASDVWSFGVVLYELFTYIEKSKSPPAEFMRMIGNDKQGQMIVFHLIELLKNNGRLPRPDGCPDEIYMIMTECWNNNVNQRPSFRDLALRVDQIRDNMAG

Structure (SMILES)	IC50
CCN1CCN(Cc2ccc(Nc3nc4ccc(Oc5ccnc(NC(=O)CCN(C)C)c5)cc4n3C)cc2C(F)(F)F)CC1 [Compound I-21, 3-(dimethylamino)-N-(4-(2-(4-((4-ethylpiperazin-1-yl)methyl)-3-(trifluoromethyl)phenylamino)-3-methyl-3H-benzo[d]imidazol-5-yloxy)pyridin-2-yl)propanamide]	4.93 µM
COC(=O)c1cc(Oc2ccc3nc(Nc4ccc(F)cc4F)n(C)c3n2)ccn1 [Compound I-13, Methyl 4-((2-((2,4-difluorophenyl)amino)-3-methyl-3H-imidazo[4,5-b]pyridin-5-yl)oxy) picolinate]	> 10 µM
CC(=O)Nc1cc(Oc2ncc3[nH]c(Nc4ccc(F)cc4F)nc3n2)ccn1 [Compound I-10, N-(4-(8-(2,4-difluorophenylamino)-7H-purin-2-yloxy)pyridin-2-yl)acetamide]	> 10 µM
CCN1CCN(Cc2ccc(Nc3nc4ccc(Oc5ccc(O)nc5)cc4n3C)cc2C(F)(F)F)CC1 [Compound I-22, 5-((2-((4-((4-ethylpiperazin-1-yl)methyl)-3-(trifluoromethyl)phenyl)amino)-1-methyl-1H-benzo[d]imidazol-6-yl)oxy)pyridin-2(1H)-one]	> 10 µM
Cn1c(Nc2ccc(F)cc2F)nc2ccc(Oc3ccnc(C(=O)O)c3)nc21 [Compound I-14, 4-((2-((2,4-difluorophenyl)amino)-3-methyl-3H-imidazo[4,5-b]pyridin-5-yl)oxy)picolinic acid]	> 10 µM
CCN1CCN(Cc2ccc(Nc3nc4cc(Oc5ccnc(NC(C)=O)c5)ccc4n3C)cc2C(F)(F)F)CC1 [Compound I-7, N-(4-(2-(4-((4-ethylpiperazin-1-yl)methyl)-3-(trifluoromethyl)phenylamino)-1-methyl-1H-benzo[d]imidazol-5-yloxy)pyridin-2-yl)acetamide]	8.53 µM
CCN1CCN(Cc2ccc(Nc3nc4ccc(Oc5ccnc(NC(=O)C6CCN(C)CC6)c5)cc4n3C)cc2C(F)(F)F)CC1 [Compound I-19, N-(4-(2-(4-((4-ethylpiperazin-1-yl)methyl)-3-(trifluoromethyl)phenylamino)-3-methyl-3H-benzo[d]imidazol-5-yloxy)pyridin-2-yl)-1-methylpiperidine-4-carboxamide]	8.03 µM
CCN1CCN(Cc2cc(Nc3nc4cc(Oc5ccnc(NC(C)=O)c5)ccc4n3C)cc(C(F)(F)F)c2)CC1 [Compound I-9, N-(4-(2-(3-((4-ethylpiperazin-1-yl)methyl)-5-(trifluoromethyl)phenylamino)-1-methyl-1H-benzo[d]imidazol-5-yloxy)pyridin-2-yl)acetamide]	2.14 µM
CC(=O)Nc1cc(Oc2ccc3nc(Nc4ccc(F)cc4F)n(C)c3c2)ccn1 [Compound I-1, N-(4-(2-(2,4-difluorophenylamino)-1-methyl-1H-benzo[d]imidazol-6-yloxy)pyridin-2-yl)acetamide]	3.08 µM
CC(=O)Nc1cc(Oc2ccc3nc(Nc4ccc(F)cc4F)[nH]c3c2C)ccn1 [Compound I-4, N-(4-(2-(2,4-difluorophenylamino)-4-methyl-1H-benzo[d]imidazol-5-yloxy)pyridin-2-yl)acetamide]	0.449 µM
CC(=O)Nc1cc(Oc2ccc3c(c2)nc(Nc2ccc(F)cc2F)n3C)ccn1 [Compound I-8, N-(4-(2-(2,4-difluorophenylamino)-1-methyl-1H-benzo[d]imidazol-5-yloxy)pyridin-2-yl)acetamide]	0.0925 µM
Cn1c(Nc2ccc(F)cc2F)nc2ccc(Oc3ccc(O)nc3)cc21 [Compound I-23]	> 10 µM
CCN1CCN(Cc2ccc(Nc3nc4ccc(Oc5ccnc(N)c5)cc4n3C)cc2C(F)(F)F)CC1 [Compound I-20, 6-(2-aminopyridin-4-yloxy)-N-(4-((4-ethylpiperazin-1-yl)methyl)-3-(trifluoromethyl)phenyl)-1-methyl-1H-benzo[d]imidazol-2-amine]	1.95 µM
CCN1CCN(Cc2ccc(Nc3nc4ccc(Oc5ccnc(NC(C)=O)c5)c(C)c4[nH]3)cc2C(F)(F)F)CC1 [Compound I-5, N-(4-(2-(4-((4-ethylpiperazin-1-yl)methyl)-3-(trifluoromethyl)phenylamino)-4-methyl-1H-benzo[d]imidazol-5-yloxy)pyridin-2-yl)acetamide]	1.05 µM
CCN1CCN(Cc2ccc(Nc3nc4ccc(Oc5ccnc(NC(=O)C6CCOCC6)c5)cc4n3C)cc2C(F)(F)F)CC1 [Compound I-18, N-(4-(2-(4-((4-ethylpiperazin-1-yl)methyl)-3-(trifluoromethyl)phenylamino)-3-methyl-3H-benzo[d]imidazol-5-yloxy)pyridin-2-yl)-tetrahydro-2H-pyran-4-carboxamide]	6 µM
CC(=O)Nc1cc(Oc2ccc3nc(Nc4ccc(F)cc4F)nn3c2)ccn1 [Compound I-11, N-(4-(2-(2,4-difluorophenylamino)-[1,2,4]triazolo[1,5-a]pyridin-6-yloxy)pyridin-2-yl)acetamide]	> 10 µM
CC(=O)Nc1cc(Oc2ccc3nc(Nc4ccc(F)cc4F)n(C)c3n2)ccn1 [Compound I-12, N-(4-(2-(2,4-difluorophenylamino)-3-methyl-3H-imidazo[4,5-b]pyridin-5-yloxy)pyridin-2-yl)acetamide]	> 10 µM
CCN1CCN(Cc2ccc(Nc3nc4ccc(Oc5ccnc(NC(C)=O)c5)nc4n3C)cc2C(F)(F)F)CC1 [Compound I-15, N-(4-((2-((4-((4-ethylpiperazin-1-yl)methyl)-3-(trifluoromethyl)phenyl)amino)-3-methyl-3H-imidazo[4,5-b]pyridin-5-yl)oxy)pyridin-2-yl)acetamide]	1.34 µM
CCN1CCN(Cc2ccc(Nc3nc4nc(Oc5ccnc(NC(C)=O)c5)ncc4[nH]3)cc2C(F)(F)F)CC1 [Compound I-16, N-(4-((8-((4-((4-ethylpiperazin-1-yl)methyl)-3-(trifluoromethyl)phenyl)amino)-7H-purin-2-yl)oxy)pyridin-2-yl)acetamide]	> 10 µM
CCN1CCN(Cc2cc(Nc3nc4ccc(Oc5ccnc(NC(C)=O)c5)cc4n3C)cc(C(F)(F)F)c2)CC1 [Compound I-3, N-(4-(2-(3-((4-ethylpiperazin-1-yl)methyl)-5-(trifluoromethyl)phenylamino)-1-methyl-1H-benzo[d]imidazol-6-yloxy)pyridin-2-yl)acetamide]	0.957 µM

System: cell lines or patient-derived xenografts from patients with CRLF2-rearranged B-ALL
Assay: not given
Conditions: cited from earlier work

Structure (SMILES)	IC50
N#CC[C@H](C1CCCC1)n1cc(-c2ncnc3[nH]ccc23)cn1 [Ruxolitinib]	> 20 µM
